The values below come from ChEMBL document CHEMBL3507680, “University of Dundee, Gates Library screen for HepG2 cell viability”.

Structures are written as SMILES.

This data set in a line: Human HepG2 cell viability assay in 384 well format. Particulars: HepG2 cells, read-out: Inhibition. More on the design: dose 125 nL, time 70.5 hour; cytotoxicity at 70.5 h: concentration not given beside the values. Format: toxicity, cell-based.

Take `COc1ccc(-c2n[nH]cc2CN2CCSCC2)c(OC)c1`: the cytotoxicity at 70.5 h is -7.44%. `O=C1NCCN2CCN(Cc3ccc(Cl)c(Cl)c3)CC12` (stereo not given): the cytotoxicity at 70.5 h was -8.1%. For the compound `CCCC(C(=O)NC1CCN(S(C)(=O)=O)CC1)n1cccc1` (stereo not given), the cytotoxicity at 70.5 h is -3.64%. As to `Cc1ccccc1N1CCN(C(=O)c2cscn2)C(C)C1` (stereo not given), the cytotoxicity at 70.5 h was -1.54%. Take `Cc1nc(N)sc1C(=O)N[C@H]1CN(CCO)C[C@@H]1C1CC1`: the cytotoxicity at 70.5 h is -2.54%.

Take `O=S1(=O)CCC(n2cc(C3=CCN(CCN4CCCCC4)CC3)cn2)C1` (stereo not given): the cytotoxicity at 70.5 h was -7.91%. On to `CC(C)=CCN1C[C@H]2CC[C@@H]1CN(C(=O)c1ccc(S(N)(=O)=O)cc1)C2`, for which the cytotoxicity at 70.5 h was 1.36%. The same measure for `COCCN1CCN(Cc2nc3c(s2)CCCC3)[C@H]2CS(=O)(=O)C[C@H]21`: -8.18%; for `O=C(Nc1ccc(-c2ccn[nH]2)cc1)C1CCCN(Cc2ccoc2)C1` (stereo not given): 1.09%.

Take `CCN(CCO)C(=O)C1CCC(=O)N(Cc2cccc(OC)c2)C1` (stereo not given): the cytotoxicity at 70.5 h was -13.2%. `Cn1cc(CN2CCOC(CCNC(=O)c3ccsc3)C2)cn1` (stereo not given): the cytotoxicity at 70.5 h is -0.896%. With `CC(=O)NCCNC(=O)C1(Oc2cccnc2C)CCNCC1`, the cytotoxicity at 70.5 h is -5.79%. The same measure for `Nc1nccc(N2CCNC(C(=O)NCc3ccccn3)C2)n1` (stereo not given): 10.1%; for `O=c1c2cccnc2ccn1Cc1nccn1C1CC1`: -10.2%. `Cc1noc(C)c1CC(=O)N1CCCC(Cn2ccnc2C)C1` (stereo not given): the cytotoxicity at 70.5 h was -16.8%. Consider `Oc1cc(CN2CCC(O)(Cn3ccnc3)CC2)nc2c(Cl)cccc12`, for which the cytotoxicity at 70.5 h was -9.08%. With `Cc1nn(C)c2nc(N3CCCCC3c3ccc(F)cc3)sc12` (stereo not given), the cytotoxicity at 70.5 h was found to be 0.992%.

As to `CCc1cnc(NCC(c2cccnc2)N2CCOCC2)nc1` (stereo not given), the cytotoxicity at 70.5 h is -1.2%. In the case of `COCC(=O)N(Cc1cccnc1)CC1CCN(C2CCCC2)CC1`, the cytotoxicity at 70.5 h is 1.31%. The same measure for `Cc1cc(C)n2nc(C(=O)N3CCCC4(CNC(=O)O4)C3)cc2n1` (stereo not given): 13.7%. In the case of `Cc1ccc(CN2CCC3(C2)C(=O)N(CC(N)=O)c2ccccc23)s1` (stereo not given), the cytotoxicity at 70.5 h is -3.49%. Then `O=C(O)c1cccc(N2CCC(Oc3cccc(F)c3)CC2)n1`, with -7%. In the case of `Cc1nn2c(N3CCCC(C(N)=O)C3)cc(-c3ccccc3)nc2c1C` (stereo not given), the cytotoxicity at 70.5 h is -3.49%. For `CCCn1cnnc1CNC(=O)C1COc2ccc(OC)cc2C1` (stereo not given), the cytotoxicity at 70.5 h came to 20.1%.

Consider `CCOc1ccnc(NCc2nc(C)cc(C(F)(F)F)n2)n1`, for which the cytotoxicity at 70.5 h was -0.888%.

In the case of `COc1cccc([C@@H]2CCN(Cc3cccc(C)n3)C[C@H]2O)c1`, the cytotoxicity at 70.5 h is -9.27%. The same measure for `CC(=O)NCCNCc1cn(CCN2CCSCC2)nc1C`: -5.7%. On to `CCN(C)S(=O)(=O)NCC1CCN(Cc2ccccc2C)CC1`, for which the cytotoxicity at 70.5 h was -9.65%. Consider `COCC(C)N1CCc2onc(-c3ccc(C(F)(F)F)cc3)c2C1` (stereo not given), for which the cytotoxicity at 70.5 h was -7.25%. Take `CCn1cncc1C1CC(=O)Nc2c1c(C)nn2-c1ccc(C)cc1` (stereo not given): the cytotoxicity at 70.5 h is 1.51%.

On to `Cc1c(C(C)NCC2CCCC2)cnn1-c1ccc(F)cc1F` (stereo not given), for which the cytotoxicity at 70.5 h is -11.6%.

Regarding `CN(C)c1nc2c(c(=O)[nH]1)Cc1ccccc1OC2`, the cytotoxicity at 70.5 h was 31.5%. Turning to `Cc1nc(N(C)CCCc2nccn2C)c2nc(C)oc2n1`, the cytotoxicity at 70.5 h is -11.8%. Regarding `CCNC(=O)[C@@H]1C[C@H](n2cc(CC3CCCCC3)nn2)CN1`, the cytotoxicity at 70.5 h was -7.89%. As for `CN(Cc1nc(C2CC2)no1)C(=O)CN1CC(c2ccccc2)CC1=O` (stereo not given), the cytotoxicity at 70.5 h was -2.96%. Then `CCn1nc(CNC(=O)C2CCCN(CC(N)=O)C2)c2ccccc21` (stereo not given), with -14.9%.

`CCN(CC)c1ncccc1CNCc1ccc(Cl)s1`: the cytotoxicity at 70.5 h was -7.77%.

Take `Cc1ccc(NC2CCCN(Cc3ccc(Cl)cc3)C2)nn1` (stereo not given): the cytotoxicity at 70.5 h worked out at 25.4%.

With `COc1cc(Oc2ccc(C(F)(F)F)cn2)ccc1CN1CCCC1`, the cytotoxicity at 70.5 h was -10.7%. Consider `COc1cccc(OCC2CCCN(C(=O)CCCn3cccn3)C2)c1` (stereo not given), for which the cytotoxicity at 70.5 h was -11%.

Turning to `CCCc1nc(CN(CC)Cc2ccoc2)no1`, the cytotoxicity at 70.5 h is -7.87%. Consider `COc1ccc(-c2ccc(C(=O)N3CCOCC3CC(N)=O)o2)cc1` (stereo not given), for which the cytotoxicity at 70.5 h is -2.54%. Regarding `CCOc1ccc2[nH]c(=O)c(CN(C)CCc3cn[nH]c3)cc2c1`, the cytotoxicity at 70.5 h was 4.91%. Then `Cc1n[nH]c(C)c1CNc1nc(-c2ccco2)nc2c1CCNCC2`, with 5.99%; and `O=C(CCN1CCOCC1)NC1CCCN(CC2CCCCC2)C1` (stereo not given), with -3.9%. In the case of `N[C@H]1CC[C@@H](NC(=O)c2ccc3nc(-c4ccc(F)cc4)cn3c2)CC1`, the cytotoxicity at 70.5 h was -14.6%. With `CN(C)C(=O)N1C[C@@H]2CC[C@H](C1)N(Cc1nnc(-c3ccccc3)o1)C2`, the cytotoxicity at 70.5 h is -16.7%.

Take `CCc1c(C)sc2ncnc(N3C[C@H](O)[C@@H](N4CCCC4)C3)c12`: the cytotoxicity at 70.5 h is -2.63%. As for `Nc1nc(CCC(=O)N2C[C@@H](CN3CCCC3)C[C@H](CO)C2)n[nH]1`, the cytotoxicity at 70.5 h is -6.67%. Consider `CC[C@H]1COCCN1C(=O)c1cnc(C(C)C)nc1C`, for which the cytotoxicity at 70.5 h came out at 16.6%.

For the compound `Cc1cc(C)nc(N2CCCC(Cn3cc(CN(C)C)nn3)C2)n1` (stereo not given), the cytotoxicity at 70.5 h was -6.18%. Consider `CCOc1ccc(CNCc2cccnc2N(C)C)cc1`, for which the cytotoxicity at 70.5 h was -5.74%. With `O=C(CCN1CCCO1)N1CC[C@@H](CNC(=O)N2CCCC2)[C@H](O)C1`, the cytotoxicity at 70.5 h was determined as 14%. On to `CC(C)c1nc(CN2CCc3onc(-c4cccc(F)c4)c3C2)no1`, for which the cytotoxicity at 70.5 h is -8.91%.

Regarding `Cc1nc(C2CCCNC2)cc(N(Cc2c(C)nn(C)c2C)C2CC2)n1` (stereo not given), the cytotoxicity at 70.5 h was -0.0304%. Turning to `CC(C)N1CCC(CC(=O)NC(C(=O)O)c2cccc(F)c2)CC1` (stereo not given), the cytotoxicity at 70.5 h was -5.14%. For the compound `COc1ccc(-n2c(SCC(=O)O)nnc2-c2cn[nH]c2)cc1`, the cytotoxicity at 70.5 h was found to be 15.3%.

With `O=C(CC1COCCN1)NCCc1nc(Cc2ccccc2)no1` (stereo not given), the cytotoxicity at 70.5 h was -15.5%. With `CC(NC(=O)Nc1ccccc1CN1CCOCC1)c1nnc(N)s1` (stereo not given), the cytotoxicity at 70.5 h is -11.9%. Regarding `CCCn1cc(C(=O)NC(CC(=O)O)c2ccco2)c(C)n1` (stereo not given), the cytotoxicity at 70.5 h was -8.82%.

As to `CN(Cc1cnc(N)nc1)C(=O)C1CC(=O)N(Cc2ccncc2)C1` (stereo not given), the cytotoxicity at 70.5 h was -10.8%. With `Cc1csc2c(=O)n(CCN3CCC(c4ccccc4)CC3)cnc12`, the cytotoxicity at 70.5 h was -3.26%. As for `CCc1nc(C)sc1CN1CCc2[nH]nc(-c3ccc(F)c(F)c3)c2C1`, the cytotoxicity at 70.5 h is -5.32%. On to `COCc1ncc(CN2CC[C@@](C)(O)[C@@H](Cc3ccccc3)C2)cn1`, for which the cytotoxicity at 70.5 h is -1.9%.

As to `COc1ccc(N2CCN(C(=O)CCn3nccc3C)CC2(C)C)cc1`, the cytotoxicity at 70.5 h was 1.97%.

Take `Cc1cc2cccc(NC(=O)N3CCC(N(C)C)C3)c2o1` (stereo not given): the cytotoxicity at 70.5 h is -8.17%.

Take `Cc1cc(NC2CCN(c3ccc(F)cc3)CC2)n2nc(C)cc2n1`: the cytotoxicity at 70.5 h was -1.64%. As for `Cc1nc(-c2cccc(C(=O)O)c2)c[nH]1`, the cytotoxicity at 70.5 h amounted to 15.3%.

As for `O=C(O)C1CCN(C[C@H]2CC[C@@H](Cc3ccc4c(c3)OCO4)O2)CC1`, the cytotoxicity at 70.5 h was 8.69%. For the compound `COc1nccc(N2CC[C@@H](N3CCC(O)CC3)[C@H](O)C2)c1C#N`, the cytotoxicity at 70.5 h worked out at 5.37%.

As for `CCOCC(=O)N1C[C@@H]2CC[C@H](C1)N(Cc1ccccn1)C2=O`, the cytotoxicity at 70.5 h was -9.63%.

For `CN1CCN(C(=O)c2cn3ccsc3n2)[C@H]2CS(=O)(=O)C[C@H]21`, the cytotoxicity at 70.5 h was -11.3%. With `CCC(CO)N(Cc1ccc(F)cc1)Cc1c(C)nn(C)c1Cl` (stereo not given), the cytotoxicity at 70.5 h was -3.37%. On to `COCc1noc(CC2CN(c3ncnc4sc(C)c(C)c34)CCO2)n1` (stereo not given), for which the cytotoxicity at 70.5 h stood at 1.73%. With `CC(C)[C@@H]1CN(Cc2cnc(C3CCCCC3)nc2)C[C@H]1N(C)C`, the cytotoxicity at 70.5 h was determined as 8.03%. As for `O=C(c1ccnc(N2CCOC(C(F)(F)F)C2)c1)N1CCCC1` (stereo not given), the cytotoxicity at 70.5 h came to 8.43%. In the case of `Cc1nonc1C1CCCN1C(=O)c1cc2n(n1)CCCNC2` (stereo not given), the cytotoxicity at 70.5 h was 4.03%.

As for `CN1CCN(CCCOc2ccccc2CN2C[C@H]3CC[C@H]2C3)CC1`, the cytotoxicity at 70.5 h was 17.4%.

Consider `CCc1cnc(C)nc1N1CCC(Cc2cccc(C(=O)O)c2)C1` (stereo not given), for which the cytotoxicity at 70.5 h was -7.7%. Regarding `O=S(=O)(c1ccc(-c2nc3c([nH]2)CCNC3)cc1)N1CCCC1`, the cytotoxicity at 70.5 h was -11.8%.

Regarding `CCn1c(C)cc(C(=O)N2C[C@@H](C(=O)O)[C@H](c3ccccc3C)C2)c1C`, the cytotoxicity at 70.5 h was -8.47%. Consider `Cc1[nH]nc(CCC(=O)N2CCOC(CCc3ccccc3)C2)c1C` (stereo not given), for which the cytotoxicity at 70.5 h was -0.521%. Then `Cc1nc(C(=O)N2CCN(C(=O)N(C)C)[C@@H]3CS(=O)(=O)C[C@@H]32)cs1`, with -5.31%; and `c1ccc(Cc2nc(C3CC3)nn2-c2ccc3c(c2)OCCO3)nc1`, with 43.6%. As for `Cc1nnsc1C(=O)NCc1cccnc1N(C)Cc1ccccc1`, the cytotoxicity at 70.5 h is -7.67%. Regarding `COC(=O)[C@@H]1C[C@H](NC(=O)Cn2c(=O)cc(C)c3ccccc32)CN1C`, the cytotoxicity at 70.5 h came to 26.6%. For the compound `CC(C)n1cc(C(=O)N2CCN(c3cccc(C(F)(F)F)c3)CC2)cn1`, the cytotoxicity at 70.5 h is -5.28%. Consider `CC(C)C[C@@H](CO)n1cc(-c2cncnc2)nn1`, for which the cytotoxicity at 70.5 h is 1.71%.

On to `Cc1csc2c(=O)n(C(C)Cc3cccnc3)cnc12` (stereo not given), for which the cytotoxicity at 70.5 h was -9.53%. With `CN(C)C(=O)N1C[C@@H]2CC[C@H](C1)N(Cc1nnc(-c3ccco3)o1)C2`, the cytotoxicity at 70.5 h was determined as 10.9%.

As to `CC(C)NCc1cccnc1N1CCN(c2ccccn2)CC1`, the cytotoxicity at 70.5 h was -11.6%. Turning to `CN(Cc1ccn[nH]1)Cc1c[nH]nc1-c1ccc(F)cc1`, the cytotoxicity at 70.5 h was -3.15%.

As to `c1cc(-c2ccc(CN3CCC4(CCNCC4)CC3)s2)[nH]n1`, the cytotoxicity at 70.5 h is -2.82%. Turning to `COc1ccc(CCN(C)C(C(=O)O)c2ccc(F)c(C)c2)cc1OC` (stereo not given), the cytotoxicity at 70.5 h was 9.05%. With `CCC(CO)N(Cc1ccsc1)Cc1ccccc1C(=O)O` (stereo not given), the cytotoxicity at 70.5 h was -8.61%.
